Measured values: patent US20230218639A1, “USE OF OXYGENATED CHOLESTEROL SULFATES FOR TREATING NEUROLOGICAL CONDITIONS, NEURODEGENERATIVE DISEASES, AND ADDICTION” (Durect Corporation, priority 2020, published 2023)
Values joined by “and” are separate entries in the source; they are usually repeats but may differ in a detail not shown here. Identical values can stand only once.

Key:
[1] = test system: ^5mCpG in promoter regions, Huh-7 cells; experiment: Whole genome bisulfite sequencing (WGBS); type: cell-based, human
Description: (§1) Each sample, 2 μg, was sent to EpigenDx, Inc. (Hopkinton, Mass.) for analysis of global methylation bisulfite sequencing. The same samples, 6 μg, were sent to Novogene Co., Ltd (Tianjin, China) for analysis of whole genome bisulfite sequencing (WGBS). Total RNA was isolated using the Promega SV total RNA isolation system (Madison, Wis.) with DNase treatment. Each sample, 2 μg, was used for the first-strand cDNA synthesis as recommended by the manufacturer (Invitrogen, Carlsbad, Calif.). Real-time RT-PCR was performed using SYBR Green as the indicator on ABI 7500 Fast Real-Time PCR System (Applied Biosystems, Foster City, Calif.). Amplifications of β-actin or GAPDH were used as internal controls. Relative messenger RNA (mRNA) expression was quantified with the comparative cycle threshold (Ct) method using the primer set shown in Table 1.1 and was expressed as 2^−ΔΔCt.
Each sample, 5.2 μg of genomic DNA spiked with 26 ng lambda DNA, was fragmented by sonication to 200-300 bp with Covaris S220, followed by end repair and adenylation. Cytosine-methylated barcodes were ligated to sonicated DNA per the manufacturer's instructions. These DNA fragments were treated twice with bisulfite using EZ DNA Methylation-Gold™ Kit (Zymo Research) before the resulting single-strand DNA fragments were PCR amplified using KAPA HiFi Hot Start Uracil and Ready Mix (2×). Library concentration was quantified by Qubit® 2.0 Flurometer (Life Technologies, CA, USA) and quantitative PCR, and the insert size was assayed on an Agilent Bioanalyzer 2100 system.
The library preparations were sequenced on an Illumina Hiseq 2500/4000 or Novaseq platform and 125 bp/150 bp paired-end reads were generated. Image analysis and base calling were performed with Illumina CASAVA pipeline. Trimmomatic (Trimmomatic-0.36) software was used for quality control. Bismark software (version 0.16.3; Krueger F, 2011) was used to perform alignments of bisulfite-treated reads to a reference genome (−×700—dovetail). DSS software (23) was used to identify differentially methylated regions (DMRs). KOBAS software was used to test the statistical enrichment of DMR related genes in the Kyoto Encyclopedia of Genes and Genomes (KEGG) pathways.
Each sample (6 μg) was used for analysis of the whole genome bisulfite sequencing (WGBS).

[2] = test system: Huh-7 cells; experiment: Real-time RT-PCR gene expression; type: cell-based, human; conditions: Huh-7, HG 72 hours; 25HC3S 6.25-50 μM, 1-8 hours
Description: as §1, with “FIGS. 3A-3D. Expression of key genes related to signaling pathways. […] Key Genes and their targeting genes expression were determined by RT-PCR analysis. […] Each” for “Each”, “[…],” for “EpigenDx,”, “Each sample, 2 μg, was used for the first-strand cDNA synthesis as recommended by the manufacturer (Invitrogen, Carlsbad, Calif.).” left out, “2^-ΔΔCt.” for “2^−ΔΔCt.”

[3] = Excretion mass balance, single intravenous dose; type: in vivo, Sprague Dawley rats; conditions: intravenous 10 mg/kg, over 168 hours
Description: Nine male Sprague Dawley rats (Group 1) were designated for the pharmacokinetic phase, 3 male Sprague Dawley rats (Group 2) for the excretion mass balance phase, and 7 male Sprague Dawley rats (Group 3) and 9 male Long Evans rats (Group 4) for the tissue distribution phase. All animals received a single intravenous dose of [^14C]-25HC3S at 10 mg/kg and a target radioactivity of 225 μCi/kg. Blood samples were collected from all Group 1 animals at approximately 0.083, 0.25, 0.5, 1, 2, 4, 8, 12, 24, 48, and 72 hours post-dose. Urine and feces were collected from all Group 2 animals periodically through 168 hours post-dose. […] Following blood collection, animals were euthanized by CO2 inhalation and carcasses frozen in a dry ice/hexane bath for processing by quantitative whole body autoradiography. Whole blood, plasma, urine, feces, cage rinse, and cage wash were analyzed for total radioactivity by liquid scintillation counting.

## C[C@H](CCCC(C)(C)O)[C@H]1CC[C@H]2[C@@H]3CC=C4C[C@@H](OS(=O)(=O)O)CC[C@]4(C)[C@H]3CC[C@]12C [25HC3S, 5-Cholesten-3β, 25-diol 3-sulfate]
[1]; of 180 total genes
  genes with demethylated ^5mCpG in promoter regions, Calcium pathway: 19 genes
[1]; of 200 total genes
  genes with demethylated ^5mCpG in promoter regions, cAMP pathway: 28 genes
[1]; of 257 total genes
  genes with demethylated ^5mCpG in promoter regions, MAPK signaling pathway: 23 genes
[1]; p<0.05, Huh-7, HG 72 hours, 25 μM 25HC3S 4 hours
  number of KEGG pathways enriched in hypomethylated genes: 79 KEGG pathways and 75 KEGG pathways
[2]
  decreased expression of FAS: ~90%
  decreased expression of HMGR: ~90%
  increased expression of CREB5: up to 20 fold
  increased expression of DUSP8: 5 fold
  increased expression of PGC1A: 12 fold
[3]
  dose recovered in urine, feces, and cage rinse: approximately 100.2%
  recovered radioactivity in feces: 83.0%
